{
  "source": "patent US8802705B2",
  "about": "“Pharmaceutical containing PPAR delta agonist” (Senju Pharmaceutical Co., Ltd., priority 2007, dated 2014)",
  "key": {"[1]": {"test_system": "Normal human corneal epithelial cells", "assay": "Effect on increase of cell number of normal human corneal epithelial cells (Experimental Example 1, Cell Counting Kit-8)", "type": "cell-based", "conditions": "for cell number increase rate: 24 hr stimulation, relative to non-addition group = 100%, mean ± SD, N = 3-4", "procedure": "Normal human corneal epithelial cells (KURABO) were used.\nAs a test substance, [3-[2-[4-isopropyl-2-(4-trifluoromethyl)phenyl-5-thiazolyl]ethyl]-5-methyl-1,2-benzisoxazol-6-yl]oxyacetic acid (hereinafter to be referred to as compound A) was used. Compound A was dissolved in ethanol (Wako Pure Chemical Industries, Ltd.) to a concentration 200-fold of the final concentration in a culture medium, and the solution was stored at −80° C. until immediately before use.\nAs a cell culture medium for consideration of the cell number-increasing effect by compound A, a culture medium (basal medium) obtained by adding insulin, hydrocortisone and transferrin contained in HCGS growth additive set (KURABO) to EpiLife (KURABO) was used.\nNormal human corneal epithelial cells cryopreserved in liquid nitrogen were thawed and the cell number was counted. The total amount thereof was transferred to EpiLife added with all of the HCGS growth additive set (insulin, epidermal growth factor mEGF derived from mouse, hydrocortisone, transferrin, bovine brain hypophysis extract) (4 mL, complete medium), and suspended well therein. The cell suspension was seeded on a fibronectin-coated 24 well plate (Becton Dickinson) at a cell number of 2×10^4 cells/500 μL/well (1×10^4 cells/cm^2 since bottom area was 2 cm^2).\nAfter completion of cell seeding, the culture plate was incubated in an incubator set to 37° C., 5% CO2, 95% air and 100% humidity for 24 hr, and the culture medium was changed to 400 μL of the basal medium (EpiLife added with insulin, hydrocortisone and transferrin from HCGS growth additives).\nAfter 24 hr thereafter, the culture medium was changed to the following culture medium (each 400 μL). • [1] basal medium alone (non-addition group) • [2] basal medium+mEGF (final concentration: 1 ng/mL; positive control group) • [3] basal medium+compound A (final concentration: 0.1 nM, 1 nM, 0.01 μM, 0.1 μM; compound A addition group)\nEthanol (5 μL) was added to 1 mL each of culture media and [2] to uniformly set the ethanol concentration of all culture media to 0.5%.\nAfter 24 hr from the start of the stimulation with compound A, the culture supernatant was removed from each well, and a basal medium added with 10% Cell Counting Kit-8 (DOJINDO) was dispensed to each well by 200 μL. After dispensing, the culture plate was transferred to an incubator set to 37° C., 5% CO2, 95% air and 100% humidity and incubated for 2 hr. The supernatant (100 μL) was transferred to a 96 well culture plate for tissue culture (Corning), and the absorbance of each well at 450 nm was measured with a microplate reader (Dainippon Sumitomo Pharma Co., Ltd.), and used as an index of cell number increase.\nThe values of the positive control group and the compound A addition group were calculated based on the average absorbance of the non-addition group as 100%, and the non-addition group was compared with the compound A addition group and positive control group according to the Dunnett multiple comparison test (one-tailed). A critical value of less than 5% as a result of the test was judged as significant."}, "[2]": {"test_system": "monkey meibomian gland epithelial cells", "assay": "Effect on cell number increase in meibomian gland epithelial cells (Experimental Example 3, Cell Counting Kit-8)", "type": "cell-based", "conditions": "medium renewed every 48 hr (3 x 48 hr), relative to non-addition group = 100%, mean ± SD, N = 5 or 10", "from_the_text": "An eyelid of monkey isolated and stored in D-PBS was transferred to a clean bench, and cell preparation was aseptically performed as follows.\nThe isolated eyelid was immersed in 80% ethanol for 30 sec, washed three times with D-PBS added with 1% penicillin-streptomycin (Invitrogen), and transferred to a minimum essential medium (MEM; Invitrogen). The adipose tissue and muscular tissue surrounding the meibomian glandular tissue of the eyelid were removed under a stereomicroscope. They were transferred to MEM containing 0.3 U/mL collagenase A (Roche Diagnostics) and 2.4 U/mL dispase II (Roche Diagnostics), and shaken at 37° C. for 4 hr and at 4° C. overnight. The enzyme-treated tissue was set under a stereomicroscope, and the eyelash and eyelid connective tissue were removed to isolate the meibomian glandular tissue. Trypsin-EDTA (4 mL, Invitrogen) was added to the isolated glandular tissue, and the mixture was incubated at 37° C. for 10 min. After incubation, MEM (5 mL) containing 10% FBS (Invitrogen) was added thereto to stop the enzyme reaction, and the tissue constituting cells were dispersed by repeated suction and discharge of the mixture 5 times using an injection syringe equipped with a 21 G injection needle. The cell dispersion was passed through 100 μm and 40 μm nylon filters (Cell Strainer; Falcon), and cell mass and the like contained therein which could not be treated with the enzyme were removed. The cell suspension passed through the filters was collected in a centrifuge tube (50 mL) and centrifuged at room temperature, 1,500 rpm for 5 min. To the cell layers containing the object cells obtained by the centrifugation was added 80 μL of D-PBS containing 0.5% bovine serum albumin (BSA; Sigma-Aldrich), and the cells were sufficiently suspended therein. Anti-Fibroblast Microbeads (Militenyi Biotec, 20 μL) was added thereto, and the mixture was left standing at room temperature for 30 min. After completion of the reaction with an antibody, 2 mL of D-PBS containing 0.5% BSA was added thereto, and the mixture was centrifuged again at room temperature, 1,500 rpm for 5 min. To the cell layers containing the object cells obtained by the centrifugation was added 1 mL of D-PBS containing 0.5% BSA, and the cells were sufficiently suspended therein. The suspension was added dropwise to LD column (Militenyi Biotec) equilibrated in advance with a column washing solution (D-PBS containing 2 mM EDTA (DOJINDO LABORATORIES) and 0.5% BSA). Then, 2 mL of the column washing solution was added dropwise to the LD column. […] The cells collected in the centrifuge tube were centrifuged at room temperature, 1,500 rpm for 5 min, and the supernatant was removed. The sediment was suspended in Defined Keratinocyte Serum Free Medium (5 mL), centrifuged at room temperature, 1,500 rpm for 5 min, and removed the supernatant. Again, the residue was suspended in DK-SFM (3 mL), centrifuged at room temperature and 1,500 rpm for 5 min, and the supernatant was removed. The cells were suspended in DK-SFM (2 mL), and seeded on a 6 well multi-well plate for cell culture, which had been treated with collagen. The seeded cells were cultured in Defined keratinocyte-Serum Free Medium (DK-SFM; Invitrogen, attached Supplement was added as instructed in the preparation protocol), cultured in an incubator (SANYO) set to 37° C., 5% CO2, 95% air, 100% humidity, and the culture medium was exchanged with a new one every 48 hr until the cells became subconfluent.\nAs a test substance, compound A, [4-[3-[2-(4-trifluoromethyl)phenyl-4-isopropyl-5-thiazolyl]propionyl]-2-methylphenoxy]acetic acid (hereinafter to be referred to as compound B) or [4-[3-[2-(2-hydroxy-4-chlorophenyl)-5-isopropyl-4-oxazolyl]propionyl]-2-methylphenoxy]acetic acid (hereinafter to be referred to as compound C) was used. […]"}},
  "data": [
    {"smiles": "Cc1cc2c(CCc3sc(-c4ccc(C(F)(F)F)cc4)nc3C(C)C)noc2cc1OCC(=O)O", "note": "[compound A, [3-[2-[4-isopropyl-2-(4-trifluoromethyl)phenyl-5-thiazolyl]ethyl]-5-methyl-1,2-benzisoxazol-6-yl]oxyacetic acid]", "values": [
      {"measurement": "effect on cell number of normal human corneal epithelial cells (in words)", "setting": "[1]; 0.1 nM-0.1 μM, conclusion of the test", "result": "increases the cell number of normal human corneal epithelial cells"},
      {"measurement": "cell number increase rate", "setting": "[1]; 10^−7 M", "result": "172.6 ± 16.0", "unit": "%"},
      {"measurement": "cell number increase rate", "setting": "[1]; 10^−8 M", "result": "187.4 ± 10.2", "unit": "%"},
      {"measurement": "cell number increase rate", "setting": "[1]; 10^−9 M", "result": "169.0 ± 8.2", "unit": "%"},
      {"measurement": "cell number increase rate", "setting": "[1]; 10^−10 M", "result": "177.4 ± 20.8", "unit": "%"},
      {"measurement": "cell number increase ratio", "setting": "[2]; 10^−6 M", "result": "189.8 ± 13.1", "unit": "%"},
      {"measurement": "cell number increase ratio", "setting": "[2]; 10^−7 M", "result": "177.1 ± 9.7", "unit": "%"},
      {"measurement": "cell number increase ratio", "setting": "[2]; 10^−8 M", "result": "175.3 ± 9.0", "unit": "%"}
    ]}
  ]
}
